# Results taken from patent US20120114797A1, “TALAROMYCES STRAINS AND ENZYME COMPOSITIONS” (DSM IP ASSETS B.V., priority 2009, published 2012).
# Key:
# [1] = system: TEC-180; assay: MIC of 2-deoxyglucose on YNB+agar plates, TEC-180; type: cell-based, Talaromyces emersonii; details: 10^7/ml spore suspensions of TEC-180 on YNB+agar plates
# [2] = system: TEC-142; assay: MIC of glucose analogs on YNB+agar plates, TEC-142; type: cell-based, Talaromyces emersonii; details: 10^7/ml spore suspensions of TEC-142 on YNB+agar plates
# Description: MIC values of various glucose analogs (2-deoxyglucose, 1-thioglucose, 5-thioglucose) are determined by examining growth after inoculation of 0.1 ml dilutions of 10^7/ml spore suspensions of TEC-142 on YNB+agar plates with increasing concentrations of analogs.
# The MIC value of 2-deoxyglucose (DOG) was determined by examining growth after inoculation of 0.1 ml dilutions of 10^7/ml spore suspensions of TEC-142 on YNB+agar plates with increasing concentrations of analog.
Compound,MIC [1] [µg/mL],MIC [2] [µg/mL]
"O=CC[C@@H](O)[C@H](O)[C@H](O)CO [2-deoxyglucose, 2-deoxy-D-glucose]",500,500
OC[C@@H](O)[C@@H](O)[C@H](O)[C@@H](O)C=S [1-thioglucose],,4000
